Experiments:
PKB = PKB (Homo sapiens, UniProt P31749); assay: PKB inhibition (comparative measurement); format: biochemical; details: read-out: IC50 PKB inhibitor
Tie2 = Tie2 (Homo sapiens, UniProt Q02763); assay: Tie2 inhibition; format: biochemical; details: read-out: IC50 Tie2 inhibitor
Sequence of Tie2 (Q02763 23-1124, species assumed): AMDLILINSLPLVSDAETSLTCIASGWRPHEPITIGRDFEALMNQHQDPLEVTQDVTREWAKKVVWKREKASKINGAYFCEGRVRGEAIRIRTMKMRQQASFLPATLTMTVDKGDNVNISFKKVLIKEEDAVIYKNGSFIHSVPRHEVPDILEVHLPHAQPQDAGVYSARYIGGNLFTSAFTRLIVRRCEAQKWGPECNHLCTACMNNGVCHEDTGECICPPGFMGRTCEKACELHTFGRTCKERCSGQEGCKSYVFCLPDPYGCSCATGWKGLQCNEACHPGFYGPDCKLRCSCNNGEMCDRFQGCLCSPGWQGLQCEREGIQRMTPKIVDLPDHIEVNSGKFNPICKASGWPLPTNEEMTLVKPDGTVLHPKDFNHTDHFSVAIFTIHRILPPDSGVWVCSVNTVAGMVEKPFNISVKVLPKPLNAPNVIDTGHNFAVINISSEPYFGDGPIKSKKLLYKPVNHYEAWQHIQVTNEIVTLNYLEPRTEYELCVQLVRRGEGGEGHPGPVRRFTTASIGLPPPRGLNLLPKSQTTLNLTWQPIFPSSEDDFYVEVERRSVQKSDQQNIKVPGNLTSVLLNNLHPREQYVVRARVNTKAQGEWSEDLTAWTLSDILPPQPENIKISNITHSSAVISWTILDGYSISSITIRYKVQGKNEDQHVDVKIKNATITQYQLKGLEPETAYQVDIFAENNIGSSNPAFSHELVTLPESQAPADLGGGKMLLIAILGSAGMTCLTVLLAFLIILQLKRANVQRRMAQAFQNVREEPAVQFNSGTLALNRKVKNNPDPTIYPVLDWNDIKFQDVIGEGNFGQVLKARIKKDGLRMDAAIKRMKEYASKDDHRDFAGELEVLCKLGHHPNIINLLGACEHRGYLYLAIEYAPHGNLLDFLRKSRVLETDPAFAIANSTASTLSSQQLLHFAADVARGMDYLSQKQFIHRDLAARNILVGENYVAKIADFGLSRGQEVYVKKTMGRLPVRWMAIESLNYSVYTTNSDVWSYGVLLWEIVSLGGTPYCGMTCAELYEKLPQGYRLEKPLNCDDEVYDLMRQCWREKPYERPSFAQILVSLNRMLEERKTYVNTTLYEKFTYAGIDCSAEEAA

Sequence of PKB (P31749 whole entry, species assumed): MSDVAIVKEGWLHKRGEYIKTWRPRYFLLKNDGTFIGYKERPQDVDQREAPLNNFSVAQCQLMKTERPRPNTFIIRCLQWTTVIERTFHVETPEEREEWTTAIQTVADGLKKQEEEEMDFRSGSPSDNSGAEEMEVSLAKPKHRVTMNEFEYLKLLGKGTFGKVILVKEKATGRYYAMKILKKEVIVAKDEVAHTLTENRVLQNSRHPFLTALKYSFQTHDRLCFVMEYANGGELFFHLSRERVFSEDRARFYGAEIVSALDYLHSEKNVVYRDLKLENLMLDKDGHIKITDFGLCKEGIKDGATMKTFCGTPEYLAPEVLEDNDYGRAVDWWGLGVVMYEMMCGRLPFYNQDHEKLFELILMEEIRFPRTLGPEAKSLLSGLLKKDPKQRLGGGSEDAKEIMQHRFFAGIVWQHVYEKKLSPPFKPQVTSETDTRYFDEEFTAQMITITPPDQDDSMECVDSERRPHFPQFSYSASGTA

IC50 (PKB): > 30 µM | IC50 (Tie2): ≥ 10 µM
SMILES: CC(C)(C)c1ccc(-c2noc(-c3cc(=O)c4cc(O)ccc4o3)n2)cc1 [6-hydroxy-2-[3-(4-tert-butylphenyl)-1,2,4-oxadiazol-5-yl]-chromone]
